In patent US20100311965A1, “2-AMINOQUINAZOLINE DERIVATIVE” (CARNA BIOSCIENCES INC., priority 2007, published 2010):

Tests used:
AurA kinase = target: T1, AurA kinase (Homo sapiens, UniProt O14965); experiment: Kinase activity, mobility shift assay (MSA), AurA; format: biochemical; conditions: read-out: inhibitory activity against AurA kinase
T1 construct: purchased Carna Biosciences Inc. (Kobe) 05-101
T1 sequence (O14965 1-403): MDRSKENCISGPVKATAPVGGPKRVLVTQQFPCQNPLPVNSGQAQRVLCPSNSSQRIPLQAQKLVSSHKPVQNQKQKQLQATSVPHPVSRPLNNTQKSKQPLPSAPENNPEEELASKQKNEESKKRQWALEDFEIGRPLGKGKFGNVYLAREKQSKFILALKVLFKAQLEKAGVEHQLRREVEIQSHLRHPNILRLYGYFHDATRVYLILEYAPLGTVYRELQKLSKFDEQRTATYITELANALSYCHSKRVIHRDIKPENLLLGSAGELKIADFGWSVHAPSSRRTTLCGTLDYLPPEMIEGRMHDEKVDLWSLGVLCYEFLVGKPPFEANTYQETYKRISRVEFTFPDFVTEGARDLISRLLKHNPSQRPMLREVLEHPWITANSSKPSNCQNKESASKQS
Experimental: (§1) A test compound was dissolved in DMSO to obtain a 10 mM test compound solution, which was stored in a dark place at −20° C. until measurement. When bioactivity (kinase activity) is measured, a test compound solution is diluted with DMSO so that the concentration becomes 100 times higher than […], and then diluted 25 times (DMSO concentration is 4%) with an assay buffer described hereinafter.
(§2) Products manufactured by Carna Biosciences Inc. (Kobe) used as protein kinases (recombinant human kinases) in the test are as follows: […]
(§3) Kinase activity was measured by a mobility shift assay (MSA) method using QuickScout Screening Assist™ MSA (commercially available kit, manufactured by Carna Biosciences Inc.)
(§4) 5 μl of a test compound solution (the concentration is 4 times of the final concentration) dissolved or suspended in an assay buffer [20 mM HEPES, 0.01% Triton™ X-100, 1 mM dithiothreitol, pH 7.5] or 5 μl of a solvent (4% DMSO-assay buffer) was charged in a 384 well plate made of polypropylene (product number 781280, manufactured by Greiner Bio-One Co., Ltd.). […] Inhibition (%) of the test compound was calculated in accordance with the following equation: […]

JAK3 = target: T2, JAK3 (Homo sapiens, UniProt P52333); experiment: Kinase activity, mobility shift assay (MSA), JAK3; format: biochemical; conditions: read-out: inhibitory activity against JAK3 kinase
T2 construct: purchased Carna Biosciences Inc. (Kobe) 08-046
T2 sequence (P52333 1-1124): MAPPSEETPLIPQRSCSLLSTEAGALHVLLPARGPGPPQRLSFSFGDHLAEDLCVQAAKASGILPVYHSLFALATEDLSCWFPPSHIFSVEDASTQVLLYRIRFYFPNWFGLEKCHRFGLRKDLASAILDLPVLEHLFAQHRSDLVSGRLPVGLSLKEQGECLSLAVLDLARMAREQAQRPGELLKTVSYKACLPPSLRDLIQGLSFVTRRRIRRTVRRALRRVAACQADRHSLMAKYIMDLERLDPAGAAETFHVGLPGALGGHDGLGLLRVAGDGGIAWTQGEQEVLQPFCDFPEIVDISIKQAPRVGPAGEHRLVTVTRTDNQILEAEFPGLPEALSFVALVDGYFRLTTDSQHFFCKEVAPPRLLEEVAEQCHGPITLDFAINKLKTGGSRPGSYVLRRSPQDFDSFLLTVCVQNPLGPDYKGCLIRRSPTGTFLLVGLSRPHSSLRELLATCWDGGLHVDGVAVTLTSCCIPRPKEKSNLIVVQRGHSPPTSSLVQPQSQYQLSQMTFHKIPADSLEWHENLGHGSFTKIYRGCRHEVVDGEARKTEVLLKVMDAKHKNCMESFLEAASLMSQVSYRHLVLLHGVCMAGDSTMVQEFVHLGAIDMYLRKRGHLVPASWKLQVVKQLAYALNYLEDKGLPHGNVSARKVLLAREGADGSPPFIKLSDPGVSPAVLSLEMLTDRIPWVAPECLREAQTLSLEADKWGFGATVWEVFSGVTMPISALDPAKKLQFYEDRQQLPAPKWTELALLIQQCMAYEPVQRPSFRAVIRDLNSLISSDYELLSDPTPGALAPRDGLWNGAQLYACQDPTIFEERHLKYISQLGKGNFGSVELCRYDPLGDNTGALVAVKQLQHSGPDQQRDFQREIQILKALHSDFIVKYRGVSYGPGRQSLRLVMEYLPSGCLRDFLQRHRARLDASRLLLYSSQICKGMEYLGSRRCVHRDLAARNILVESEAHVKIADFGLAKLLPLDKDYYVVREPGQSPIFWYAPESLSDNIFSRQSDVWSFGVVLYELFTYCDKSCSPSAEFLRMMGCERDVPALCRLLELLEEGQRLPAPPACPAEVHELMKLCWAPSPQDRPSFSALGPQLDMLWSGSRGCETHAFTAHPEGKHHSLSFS
Experimental: as §1, §2, §3, §4

JAK2 = JAK2 (Homo sapiens, UniProt O60674); experiment: Kinase activity, mobility shift assay (MSA), JAK2; format: biochemical; conditions: read-out: inhibitory activity against JAK2 kinase
Syk kinase = target: T3, Syk kinase (Homo sapiens, UniProt P43405); experiment: Kinase activity, mobility shift assay (MSA), Syk; format: biochemical; conditions: read-out: inhibitory activity against Syk kinase
T3 construct: purchased Carna Biosciences Inc. (Kobe) 08-176
Experimental: as §1
Products manufactured by Carna Biosciences Inc. (Kobe) used as protein kinases (recombinant human kinases) in the test are as follows:
SYK (product number: 08-176), JAK3 (product number: 08-046), FLT3 (product number: 08-154), PDGFRα (PDGFRA) (product number: 08-157), TRKA (NTRK1) (product number: 08-186), KDR (product number: 08-191), CDK2/cycA (product number: 04-103), and AurA (AURKA) (product number: 05-101).
as §3
5 μl of a test compound solution (the concentration is 4 times of the final concentration) dissolved or suspended in an assay buffer [20 mM HEPES, 0.01% Triton™ X-100, 1 mM dithiothreitol, pH 7.5] or 5 μl of a solvent (4% DMSO-assay buffer) was charged in a 384 well plate made of polypropylene (product number 781280, manufactured by Greiner Bio-One Co., Ltd.). Then, 5 μl of ATP/substrate/metal solution of QuickScout Screening Assist MSA was added. Furthermore, 10 μl of a kinase solution diluted with assay buffer was added and the reaction was initiated. However, only assay buffer (10 μl) was added to blank. The concentration of kinase and reaction conditions were controlled in accordance with the protocol of QuickScout Screening Assist MSA. Then, the reaction was terminated by adding 60 μl of termination buffer of QuickScout Screening Assist MSA and the amount of a substrate (S) and a phosphorylated substrate (P) in the reaction solution were determined in accordance with the protocol of QuickScout Screening Assist MSA using LabChip3000 (manufactured by Caliper Life Sciences Co., MA, USA), and also inhibition of the test compound at a concentration of 0.01, 0.1 and 1 μM was measured, respectively. The amounts of S and P were expressed by the height of each separated peak. Inhibition (%) of the test compound was calculated in accordance with the following equation:
Inhibition (%)=(1−(C−A)/(B−A))×100
where A denotes blank, B denotes a solvent and C denotes P/(P+S) of a well of the compound.

[1] = tested on: Rat basophilic cells RBL-2H3; experiment: Action against IgE-induced degranulation (β-hexosaminidase release); format: cell-based; conditions: RBL-2H3 cells, anti-DNP-IgE / DNP-BSA, read-out: inhibitory activity against IgE-induced degranulation
Experimental: An inhibitory action against SYK was evaluated by an inhibitory action against degranulation of basophils induced by IgE. Rat basophilic cells RBL-2H3 were incubated with an anti-DNP-IgE antibody (1 μg/mL, Zymed) overnight. After washing cells twice with HBSS, an antigen DNP-BSA (1 μg/mL, LSL) was added, followed by incubation for 30 minutes. The supernatant was taken and an activity of β-hexosaminidase in the solution isolated by degranulation was measured using p-nitrophenyl-N-β-D-glucosaminide as a substrate. Using an absorbance meter (Spectra MAX Pro, Molecular Devices), each absorbance at 405 nm and 570 nm of the solution was measured and an increase in the amount was taken as an enzyme activity. 10 minutes before the addition of an antigen, a test material and a solvent (0.1% DMSO) were added to cells. Inhibition rate (%) against degranulation was calculated by the following equation.
Inhibition rate (%)=(1−(A−C)/(B−C))×100
where A denotes an increase in absorbance of a test material group, B denotes an increase in absorbance of a solvent group, and C denotes an increase in absorbance of a solvent group which is not stimulated by an antigen.

JAK2, sequence (O60674 whole entry): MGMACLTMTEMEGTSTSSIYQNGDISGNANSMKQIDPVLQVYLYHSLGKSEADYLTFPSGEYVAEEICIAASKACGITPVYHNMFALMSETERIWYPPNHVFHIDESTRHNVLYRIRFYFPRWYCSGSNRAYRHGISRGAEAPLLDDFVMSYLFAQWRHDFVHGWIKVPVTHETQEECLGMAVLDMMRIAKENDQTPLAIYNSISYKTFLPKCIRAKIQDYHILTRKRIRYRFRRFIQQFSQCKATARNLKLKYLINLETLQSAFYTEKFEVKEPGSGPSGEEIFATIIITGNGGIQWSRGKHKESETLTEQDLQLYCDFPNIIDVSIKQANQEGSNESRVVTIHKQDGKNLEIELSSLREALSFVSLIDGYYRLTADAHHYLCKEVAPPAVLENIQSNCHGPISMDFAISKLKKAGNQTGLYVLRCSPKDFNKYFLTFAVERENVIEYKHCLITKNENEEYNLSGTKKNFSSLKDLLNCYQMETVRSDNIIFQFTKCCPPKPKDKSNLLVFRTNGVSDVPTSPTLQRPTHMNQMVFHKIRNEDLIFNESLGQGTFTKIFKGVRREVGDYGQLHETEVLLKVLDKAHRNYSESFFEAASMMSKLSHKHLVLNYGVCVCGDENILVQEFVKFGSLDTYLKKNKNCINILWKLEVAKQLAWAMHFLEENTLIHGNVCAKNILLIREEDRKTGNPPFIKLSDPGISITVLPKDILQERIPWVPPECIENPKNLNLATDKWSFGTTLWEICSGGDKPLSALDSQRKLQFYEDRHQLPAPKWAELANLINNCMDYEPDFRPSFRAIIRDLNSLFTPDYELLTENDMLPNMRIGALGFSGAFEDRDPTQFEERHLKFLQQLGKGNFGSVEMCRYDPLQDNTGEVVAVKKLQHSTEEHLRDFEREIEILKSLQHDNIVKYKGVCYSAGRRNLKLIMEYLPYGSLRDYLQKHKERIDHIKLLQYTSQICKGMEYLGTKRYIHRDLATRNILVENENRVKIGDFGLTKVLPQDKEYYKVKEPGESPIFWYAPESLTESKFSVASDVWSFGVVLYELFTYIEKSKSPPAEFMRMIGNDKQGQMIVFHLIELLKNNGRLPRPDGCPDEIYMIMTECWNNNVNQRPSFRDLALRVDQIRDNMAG

Work on `Cc1cccc2cnc(Nc3ccc4cc[nH]c4c3)nc12` [Example 5, N-(1H-indol-6-yl)-8-methylquinazoline-2-amine] yielded an inhibition at 0.1 µM (AurA kinase) of at least 50%.
`COc1ccc(Nc2ncc3cccc(C)c3n2)cc1OC` [Example 30] gave an inhibition at 0.1 µM (JAK3) of at least 50% and an inhibition at 0.1 µM (JAK2) of at least 50%.
`Cc1cccc2cnc(Nc3cc(O)c4cn[nH]c4c3)nc12` [Example 82, 8-methyl-N-(4-hydroxy-1H-indazol-6-yl)quinazoline-2-amine] was tested, and the inhibition at 0.1 µM (Syk kinase) was at least 50% and the inhibition at 0.05 µM [1] was at least 50%.
In the case of `Cc1nc2c(N)cc(Nc3ncc4cccc(C)c4n3)cc2[nH]1` [Example 88, 8-methyl-N-(2-methyl-4-amino-1H-benzo[d]imidazol-6-yl)quinazoline-2-amine], the inhibition at 0.1 µM (Syk kinase) is reported as at least 50% and the inhibition at 0.05 µM [1] is reported as at least 50%.
